Laboratory results: PubChem BioAssay (NCI)
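Cultured in 96-well plates, cells were exposed to test compound for 48 hours across five concentrations. The concentration for full growth arrest is given as TGI.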

How the values were obtained:
Assay in all cases: NCI-60 cell line screen, 48 h
CAKI-1 renal = test system: CAKI-1 renal
HS 578T breast = test system: HS 578T breast
MOLT-4 leukemia = test system: MOLT-4 leukemia
NCI-H23 lung = test system: NCI-H23 lung
NCI/ADR-RES ovarian = test system: NCI/ADR-RES ovarian
OVCAR-8 ovarian = test system: OVCAR-8 ovarian
SK-MEL-2 melanoma = test system: SK-MEL-2 melanoma
SK-MEL-28 melanoma = test system: SK-MEL-28 melanoma
SF-539 CNS = test system: SF-539 CNS
SNB-75 CNS = test system: SNB-75 CNS

SMILES | TGI (CAKI-1 renal) | TGI (HS 578T breast) | TGI (MOLT-4 leukemia) | TGI (NCI-H23 lung) | TGI (NCI/ADR-RES ovarian) | TGI (OVCAR-8 ovarian) | TGI (SK-MEL-2 melanoma) | TGI (SK-MEL-28 melanoma) | TGI (SF-539 CNS) | TGI (SNB-75 CNS)
COc1ccc(/C=C2\CN(C)Cc3c2[nH]c(=O)c(C#N)c3-c2ccc(OC)cc2)cc1 | > 100 µM | > 100 µM | > 100 µM | > 100 µM | > 100 µM | > 100 µM | > 100 µM | > 100 µM |  | 
CC(=O)NC1=C(C)C(=O)c2c(nc3n2CC[C@H]3OC(C)=O)C1=O | 8.22 µM | 9.21 µM |  | 8.41 µM | 15.6 µM | 6.75 µM | 3.52 µM | 5.16 µM | 4.38 µM | 9.18 µM
CCS(=O)(=O)c1c2cc(OC)ccc2nc2ccc(OC)cc12 | > 100 µM |  | > 100 µM | > 100 µM | > 100 µM | > 100 µM | > 100 µM | > 100 µM | > 100 µM | > 100 µM
CCOC(=O)N(C)C1(c2ccccc2)CCN(CCCC(=O)c2ccc(F)cc2)CC1 | > 100 µM | > 100 µM | > 100 µM | > 100 µM | > 100 µM | > 100 µM | 53.5 µM | 47.1 µM | 65.7 µM | 
COc1cc(C(SCc2ccccc2)SCc2ccccc2)ccc1O | > 10 µM | > 10 µM | > 10 µM |  | > 10 µM | > 10 µM | > 10 µM | > 10 µM | > 10 µM | > 10 µM
O=C(C#Cc1cn(C2CC(O)C(CO)O2)c(=O)[nH]c1=O)c1ccccc1 (stereo not given) | > 100 µM | > 100 µM |  | > 100 µM | > 100 µM | > 100 µM | > 100 µM | > 100 µM | 52.5 µM | > 100 µM
COc1ccc(C2(C3c4cc(OC)c(OC)cc4CCN3C)SCCCS2)cc1O (stereo not given) | > 100 µM | > 100 µM | > 100 µM | > 100 µM | > 100 µM | > 100 µM | > 100 µM | > 100 µM | > 100 µM | 
COC(=O)CCN(CCC(=O)OC)C1CC1 |  | > 100 µM | > 100 µM | > 100 µM | > 100 µM | > 100 µM |  | > 100 µM | > 100 µM | > 100 µM
CN1CCCCC(C(O)(c2ccccc2)c2ccccc2)C1=O (stereo not given) |  |  | > 100 µM | > 100 µM |  | > 100 µM | > 100 µM | > 100 µM | > 100 µM | > 100 µM
Cn1ccc(C(=O)NCCCCCNC(=O)c2ccn(C)c(=O)c2O)c(O)c1=O | > 100 µM | > 100 µM |  | > 100 µM | > 100 µM | > 100 µM | > 100 µM | > 100 µM |  | 
CCOC12SC(=Nc3ccc(C)cc3)NN1C(=S)N(C)N=C2C (stereo not given) |  |  | > 100 µM | > 100 µM |  | > 100 µM |  | > 100 µM | > 100 µM | > 100 µM
